In the test the target is T1, PDE4B2 (Homo sapiens, UniProt Q07343).
T1 construct: made in house; host or cells: SF21 insect cells (baculovirus; virus made in SF9 cells)
Put plainly: Inhibition of PDE4 activity (PDE4B2 [3H]cAMP SPA enzyme assay). The class given is biochemical. Conditions: recombinant PDE4B2 expressed in SF21 insect cells, 0.5 μM cAMP, read-out: −log IC50 (mol/l), Inhibition of the PDE4 activity (converted). On the procedure: The PDE4B2 (GB no. M97515) was a gift of Prof. M. Conti (Stanford University, USA). It was amplified from the original plasmid (pCMV5) via PCR with primers Rb9 (5′-[…]-3′) and Rb10 (5′-[…]-3′) and cloned into the pCR-Bac vector (Invitrogen, Groningen, NL).
The recombinant baculovirus was prepared by means of homologous recombination in SF9 insect cells. The expression plasmid was cotransfected with Bac-N-Blue (Invitrogen, Groningen, NL) or Baculo-Gold DNA (Pharmingen, Hamburg) using a standard protocol (Pharmingen, Hamburg). Wt virus-free recombinant virus supernatant was selected using plaque assay methods. After that, high-titre virus supernatant was prepared by amplifying 3 times. PDE was expressed in SF21 cells by infecting 2×10^6 cells/ml with an MOI (multiplicity of infection) between 1 and 10 in serum-free SF900 medium (Life Technologies, Paisley, UK). […]
The SF21 insect cells were resuspended, at a concentration of approx. 10^7 cells/ml, in ice-cold (4° C.) homogenization buffer (20 mM Tris, pH 8.2, containing the following additions: 140 mM NaCl, 3.8 mM KCl, 1 mM EGTA, 1 mM MgCl2, 10 mM β-mercaptoethanol, 2 mM benzamidine, 0.4 mM Pefablock, 10 μM leupeptin, 10 μM pepstatin A, 5 μM trypsin inhibitor) and disrupted by ultrasonication. […] The protein content was determined by the Bradford method (BioRad, Munich) using BSA as the standard. […]

SMILES strings stand for the structures.

T1 sequence (Q07343 1-564 isoform Q07343-2): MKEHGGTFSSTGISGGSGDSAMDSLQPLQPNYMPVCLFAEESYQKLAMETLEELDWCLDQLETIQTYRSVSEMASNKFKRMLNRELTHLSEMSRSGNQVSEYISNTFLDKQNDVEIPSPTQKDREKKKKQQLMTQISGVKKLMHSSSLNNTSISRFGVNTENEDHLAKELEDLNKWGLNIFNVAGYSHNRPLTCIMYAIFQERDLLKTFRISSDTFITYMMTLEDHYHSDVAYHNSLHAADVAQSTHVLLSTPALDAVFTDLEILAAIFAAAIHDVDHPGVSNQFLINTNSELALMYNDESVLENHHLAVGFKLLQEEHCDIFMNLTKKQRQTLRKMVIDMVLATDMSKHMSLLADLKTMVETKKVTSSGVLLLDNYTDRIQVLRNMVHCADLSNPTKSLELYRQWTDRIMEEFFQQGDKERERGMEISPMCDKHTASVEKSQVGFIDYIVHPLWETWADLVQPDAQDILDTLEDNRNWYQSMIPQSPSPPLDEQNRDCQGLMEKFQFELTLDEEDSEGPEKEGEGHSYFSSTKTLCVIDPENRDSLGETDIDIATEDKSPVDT

For `CCOc1cc2c(cc1OC)C(c1ccc(OC)nc1OC)=N[C@@H]1CCCC[C@H]21` [Example 2, (4aR,10bR)-6-(2,6-Dimethoxy-pyridin-3-yl)-9-ethoxy-8-methoxy-1,2,3,4,4a,10b-hexahydro-phenanthridine], the IC50 is 3.24 nM.

The values above are taken from patent US20080119505A1, “Novel 6-Pyridylphenanthridines” (ALTANA Pharma AG, priority 2005, published 2008).
